One may read the EC90 as the point of the concentration-response curve where the effect stands at 90%.

Here are results for 1 compound from patent publication US20170029451A1, “BRANCHED CHAIN ACYCLIC NUCLEOSIDE PHOSPHONATE ESTERS AND METHODS OF SYNTHESIS AND USES THEREOF” (CHIMERIX, INC., priority 2013, published 2017).

For one data set, the system named is HCMV (Strain AD169). The data set is described as follows: Plaque reduction assay, HCMV AD169 in human foreskin fibroblast cells. The class given is cell-based, Human Cytomegalovirus (HCMV). Conditions: for EC50: Human betaherpesvirus 5, AD169, Fibroblast. A general note: In a plaque reduction assay, fewer plaques than in the control indicate reduced infectivity or spread.

In data set [1] the test system is HCMV UL54 resistant mutant D542E (HDP-CDV^R). As to the kind of experiment: microbe, parasite or virus in culture. It is filed as cell-based, Human Cytomegalovirus (HCMV).
The test system of data set [2] is HCMV UL54 resistant mutant GDG^RP53. As to the kind of experiment: microbe, parasite or virus in culture. It is filed as cell-based, Human Cytomegalovirus (HCMV). Particulars: Human betaherpesvirus 5, Fibroblast.
The test system of data set [3] is Influenza virus A/CA/10/2009. The data set is described as follows: microbe, parasite or virus in culture. The class given is cell-based. Particulars: unidentified influenza virus, MDCK, read-out: A/CA/10/2009 (EC50, μM).
Data set [4] is described as follows: Cytotoxicity (CC50) in MRC-5 cells. The class given is cell-based. Conditions: human, cell line MRC5 (HCMV row). Here is the method:
Costar 96-well tissue culture plates were seeded with 20,000 MRC-5 cells (ATCC)/well in EMEM (ATCC, Cat 30-2003) containing 2% Hyclone Standard Fetal Bovine Serum (FBS, Cat 5H30088.03) and 1% Hyclone Penicillin and Streptomycin (Cat SV30010). Outer wells were not used to minimize the edge-effect produced by extended incubations. Serial dilutions of test compounds were added to the cells and plates were incubated for 7 days at 37° C. in 5% CO2. After 7 days of incubation 40 μL of Cell Titer 96® Aqueous MTS Reagent (Promega, G111) was added as directed by manufacturer to the 200 iut media in each well and incubated at 37° C. until the untreated-cell controls developed an 490 nm absorbance between 1.1 and 1.8. The final absorbance readings were read using a BioTek Synergy 2, and Gen 5 software (BioTek Instruments, Inc.) was used to calculate the concentration which inhibited MRC-5 cells by 50% (CC50).

The nature of data set [5]: Cytotoxicity in MEF cells. Conditions: mouse, cell line MEF (MCMV row). It is filed as cell-based.
A further data set concerns HCV. The data set is described as follows: HCV antiviral activity in Huh cells. It is filed as cell-based. Particulars: Hepatitis C virus, cell line Huh.
Another data set has as its system HBV. As to the kind of experiment: HBV antiviral activity in 2.2.15 cells. The class given is cell-based. Conditions: Hepatitis B virus, cell line 2.2.15.
The subject of another data set is HHV-6B. As to the kind of experiment: DNA hybridization assay for HHV-6B in MOLT-3 cells. The class given is cell-based, human herpes virus 6 (HHV-6). Conditions: Homo sapiens; Virus HHV-6B, cell line MOLT-3. Here is the method:
Assays for EBV were performed in Akata cells that were induced to undergo a lytic infection with 50 μg/ml of a goat anti-human IgG antibody by standard methods. Experimental compounds were diluted in round bottom 96-well plates to yield concentrations ranging from 20 to 0.016 μM. Akata cells were added to the plates at a concentration of 4×10^4 cells per well and incubated for 72 h. For HHV-6 assays, compounds were serially diluted in 96-well plates then 1×10^4 uninfected HSB-2 or Molt-3 cells were added to each well. Infection was initiated by adding HHV-6A infected HSB-2 cells, or HHV-6B infected Molt-3 cells, at a ratio of approximately 1 infected cell for every 10 uninfected HSB-2 cells or Molt-3 cells respectively and incubated for 7 d at 37° C.
For all assays, 100 µl of denaturation buffer (1.2M NaOH, 4.5M […] NaCl) was added to each well to denature the DNA and a […] aliquot was aspirated through an Immobilon nylon membrane (Millipore, Bedford, Mass.) using a Biodot apparatus (Bio-Rad, Hercules, Calif.). The membranes were then allowed to dry before equilibration in DIG Easy Hyb (Roche Diagnostics, Indianapolis, Ind.) at 56° C. for 30 min. Specific digoxigenin (DIG)-labeled probes were prepared for each virus according to the manufacturer's protocol (Roche Diagnostics). […]

Data set [6] is described as follows: Cytotoxicity in MOLT-3 cells. The class given is cell-based. Particulars: human, cell line MOLT-3 (HHV-6B row). As to the method:
Cell viability in all assays with lymphocytes was assessed with the CellTiter-Glo Luminescent Cell Viability Assay (Promega). Briefly, assay plates were incubated at ambient temperature for 30 min then 50 µl of CellTiter-Glo reagent was added to each well and the plates were mixed for 2 min on an orbital shaker to lyse the cells. Plates were then incubated for an additional 10 min at ambient temperature and the luminescence was quantified on a luminometer. Standard methods were used to calculate drug concentrations that inhibited the proliferation of Akata, HSB-2, BCLB-1, or Molt-3 cells by 50% (CC50).

A further data set relates to Ebola. The data set is described as follows: microbe, parasite or virus in culture. It is filed as cell-based, ebola virus. Particulars: Zaire ebolavirus.
The nature of data set [7]: in vitro. Particulars: human.
Data set [8] is described as follows: in vitro. Particulars: African green monkey.
Data set [9] has as its system human foreskin fibroblast cells. As to the kind of experiment: Neutral red cytotoxicity assay in human foreskin fibroblast cells. Particulars: read-out: VACV CC50, μm, parallel to VACV assay (second printing of Table 4).

Like-named read-outs stand apart in the source and are kept apart here. A value given as a limit tells only on which side of the number the result lay.

As to `CC(C)CCCCCCCCCCCCCCOCCCOP(=O)(O)COC(CO)Cn1ccc(=O)[nH]c1=O` (stereo not drawn) [Compound 12], the EC50 was 0.052 µM in the data set on HCMV (Strain AD169) (Strain AD169, human foreskin fibroblast cells, read-out: HCMV EC50); approximately 0.052 µM with HCMV (Strain AD169) (Virus AD169, human foreskin fibroblast cells (Table 3), read-out: EC50); approximately 5.41 µM in data set [1] (Human betaherpesvirus 5, Fibroblast, read-out: EC50 μM, Virus D542E (HDP-CDV^R), human foreskin fibroblast cells); approximately 0.171 µM in [2] (read-out: EC50 μM, Virus GDG^RP53, human foreskin fibroblast cells); more than 4 µM in data set [3]; 0.57 µM in the data set on HCV. Besides, the EC50 in the data set on HBV is 3 µM; with HHV-6B, 4.7 µM; in the data set on Ebola it was 1 µM. The EC90 was 0.15 µM in the data set with HCMV (Strain AD169) (Human betaherpesvirus 5, Virus AD169, human foreskin fibroblast cells); more than 10 µM in data set [1] (Human betaherpesvirus 5, Fibroblast, read-out: EC90 μM); 1.55 µM in [2] (read-out: EC90 μM). The “efficacy on UL54 HCMV resistant variants” value in data set [1] (effect of mutations in UL54 which reduce efficacy for HDP-CDV) is on record as “reduced”. For the same compound, in data set [4], the CC50 at 7 days was found to be 50 µM. Moreover, the CC50 in data set [5] is 60 µM; in data set [6] it was 8.4 µM; in “in vitro [7]” (CPXV CC50, μM, Human Foreskin Fibroblast Cells, parallel to CPXV assay), more than 10 µM; in the data set “in vitro [7]” (HCMV CC50, μM) it was more than 50 µM; in the data set “in vitro [7]” (HSV-1 CC50, μM), more than 50 µM; in the data set “in vitro [8]”, 29 µM. For the same compound, in [9], the CC50 is more than 10 µM.
